Laboratory results taken from ChEMBL document CHEMBL1909046, “DrugMatrix in vitro pharmacology data”.

What was measured:
[1] = target: T1, Alpha-2C adrenergic receptor (Homo sapiens, UniProt P18825); test: DRUGMATRIX: Adrenergic Alpha-2C radioligand binding (ligand: [3H] MK-912); type: cell membranes, Sf9, Membrane; conditions: sf9
T1 sequence (P18825 whole entry): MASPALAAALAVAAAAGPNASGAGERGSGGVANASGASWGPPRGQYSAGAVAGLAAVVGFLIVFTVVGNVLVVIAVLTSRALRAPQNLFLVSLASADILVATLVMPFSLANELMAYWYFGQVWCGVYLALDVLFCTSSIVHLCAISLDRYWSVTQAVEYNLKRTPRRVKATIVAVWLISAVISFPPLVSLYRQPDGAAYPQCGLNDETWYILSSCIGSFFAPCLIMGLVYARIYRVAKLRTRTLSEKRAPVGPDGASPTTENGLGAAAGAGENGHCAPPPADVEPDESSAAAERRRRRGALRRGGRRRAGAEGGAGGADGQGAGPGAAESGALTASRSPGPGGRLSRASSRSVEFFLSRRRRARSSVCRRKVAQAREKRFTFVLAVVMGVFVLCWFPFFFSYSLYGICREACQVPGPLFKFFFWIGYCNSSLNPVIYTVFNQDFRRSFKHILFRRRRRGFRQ

[2] = target: Protein phosphatase 3 catalytic subunit alpha (Homo sapiens, UniProt Q08209); design: species or system Escherichia coli;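 also: inhibition of calcineurin (PP2B) enzyme activity, measured with DiFMUP as the substrate; in other assays of this panel Not Active means under 50% inhibition at 10 µM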
Adenosine receptor A2a = Adenosine receptor A2a (Homo sapiens, UniProt P29274); test: DRUGMATRIX: Adenosine A2A radioligand binding (ligand: […]); type: cell membranes, HEK293, Membrane; conditions: hek293; Not Active = under 50% inhibition at 10 µM
[3] = DRUGMATRIX: Atrial Natriuretic Factor (ANF) radioligand binding (ligand: [125I] ANF (rat)); type: cell membranes, Cavia porcellus, Dunkin-Hartley, Adrenal gland, Membrane; conditions: Not Active = under 50% inhibition at 10 µM
[4] = DRUGMATRIX: Phosphodiesterase PDE3 enzyme inhibition (substrate: [3H]cAMP + cAMP); type: tissue-based, Homo sapiens; conditions: platelet; Not Active = under 50% inhibition at 10 µM
Caspase-1 = target: T2, Caspase-1 (Homo sapiens, UniProt P29466); design: species or system Escherichia coli;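 also: Caspase-1 enzyme inhibition assay with a peptide substrate; in other assays of this panel Not Active means under 50% inhibition at 10 µM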
T2 sequence (P29466 whole entry): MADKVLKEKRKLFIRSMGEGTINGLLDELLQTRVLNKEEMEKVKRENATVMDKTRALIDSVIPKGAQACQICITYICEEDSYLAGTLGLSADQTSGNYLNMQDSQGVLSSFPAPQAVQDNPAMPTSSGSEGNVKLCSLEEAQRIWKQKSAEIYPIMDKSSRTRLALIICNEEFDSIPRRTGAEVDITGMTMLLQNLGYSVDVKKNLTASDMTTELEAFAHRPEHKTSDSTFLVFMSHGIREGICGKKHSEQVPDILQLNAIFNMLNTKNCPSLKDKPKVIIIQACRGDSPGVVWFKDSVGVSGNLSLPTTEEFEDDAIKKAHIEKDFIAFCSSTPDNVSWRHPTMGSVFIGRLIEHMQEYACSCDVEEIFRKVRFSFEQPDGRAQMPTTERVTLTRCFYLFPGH

[5] = target: T3, C-X-C chemokine receptor type 1 (Homo sapiens, UniProt P25024); also: in other assays of this panel Not Active means under 50% inhibition at 10 µM
T3 sequence (P25024 whole entry): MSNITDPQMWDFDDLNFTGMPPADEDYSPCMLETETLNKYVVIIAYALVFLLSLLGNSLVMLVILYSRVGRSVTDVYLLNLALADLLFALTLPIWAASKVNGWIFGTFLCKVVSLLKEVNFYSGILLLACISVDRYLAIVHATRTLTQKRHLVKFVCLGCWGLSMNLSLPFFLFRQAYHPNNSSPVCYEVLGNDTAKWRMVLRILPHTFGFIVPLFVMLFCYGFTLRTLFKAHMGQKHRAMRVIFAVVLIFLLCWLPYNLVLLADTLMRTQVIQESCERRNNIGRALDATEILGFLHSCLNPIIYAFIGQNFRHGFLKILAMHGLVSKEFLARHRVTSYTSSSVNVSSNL

Nitric oxide synthase 1 = Nitric oxide synthase 1 (Rattus norvegicus, UniProt P29476); type: tissue-based, Cerebellum; also: in other assays of this panel Not Active means under 50% inhibition at 10 µM
Estrogen receptor beta = Estrogen receptor beta (Homo sapiens, UniProt Q92731); conditions: sf9; also: in other assays of this panel Not Active means under 50% inhibition at 10 µM
[6] = DRUGMATRIX: Potassium Channel [KATP] radioligand binding (ligand: [3H] Glyburide); type: cell membranes, Membrane; conditions: hit-t15; Not Active = under 50% inhibition at 10 µM
[7] = DRUGMATRIX: Leukotriene, BLT (LTB4) radioligand binding (ligand: [3H]LTB4); type: cell membranes, Membrane; conditions: u-937; Not Active = under 50% inhibition at 10 µM
[8] = target: Tyrosine-protein kinase Lck (Homo sapiens, UniProt P06239); test: DRUGMATRIX: Protein Tyrosine Kinase, LCK enzyme inhibition (substrate: Poly(Glu:Tyr)); type: cell-based, Insect cells; conditions: insect cells; Not Active = under 50% inhibition at 10 µM
[9] = target: T4, Cysteinyl leukotriene receptor 1 (Homo sapiens, UniProt Q9Y271); type: cell membranes, CHO-K1, Membrane; conditions: cho-k1; also: in other assays of this panel Not Active means under 50% inhibition at 10 µM
T4 sequence (Q9Y271 whole entry): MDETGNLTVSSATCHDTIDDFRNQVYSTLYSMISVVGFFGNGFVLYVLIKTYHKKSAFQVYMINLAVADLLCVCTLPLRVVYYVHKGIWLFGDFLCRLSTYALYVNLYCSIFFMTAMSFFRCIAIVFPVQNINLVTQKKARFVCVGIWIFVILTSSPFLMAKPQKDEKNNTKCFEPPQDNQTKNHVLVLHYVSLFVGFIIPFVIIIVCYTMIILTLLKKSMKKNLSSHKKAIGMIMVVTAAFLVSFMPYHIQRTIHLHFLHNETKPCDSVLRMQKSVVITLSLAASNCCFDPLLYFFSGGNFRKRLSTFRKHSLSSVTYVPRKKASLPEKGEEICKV

[10] = target: 5-hydroxytryptamine receptor 4 (Cavia porcellus, UniProt O70528); type: cell membranes, Dunkin-Hartley, Striatum, Membrane; also: in other assays of this panel Not Active means under 50% inhibition at 10 µM
5-hydroxytryptamine receptor 4, sequence (O70528 whole entry): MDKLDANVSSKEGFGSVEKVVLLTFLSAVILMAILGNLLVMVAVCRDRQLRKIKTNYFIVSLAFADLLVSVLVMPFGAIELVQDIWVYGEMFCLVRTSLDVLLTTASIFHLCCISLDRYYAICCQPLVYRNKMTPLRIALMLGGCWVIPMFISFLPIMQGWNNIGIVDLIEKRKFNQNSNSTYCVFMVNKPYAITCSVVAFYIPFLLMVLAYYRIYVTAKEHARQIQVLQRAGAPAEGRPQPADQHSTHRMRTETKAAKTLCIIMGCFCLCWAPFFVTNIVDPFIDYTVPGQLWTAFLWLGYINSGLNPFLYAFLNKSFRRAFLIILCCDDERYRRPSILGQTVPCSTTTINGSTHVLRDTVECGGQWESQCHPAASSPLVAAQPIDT

Adenosine receptor A2a, sequence (P29274 whole entry): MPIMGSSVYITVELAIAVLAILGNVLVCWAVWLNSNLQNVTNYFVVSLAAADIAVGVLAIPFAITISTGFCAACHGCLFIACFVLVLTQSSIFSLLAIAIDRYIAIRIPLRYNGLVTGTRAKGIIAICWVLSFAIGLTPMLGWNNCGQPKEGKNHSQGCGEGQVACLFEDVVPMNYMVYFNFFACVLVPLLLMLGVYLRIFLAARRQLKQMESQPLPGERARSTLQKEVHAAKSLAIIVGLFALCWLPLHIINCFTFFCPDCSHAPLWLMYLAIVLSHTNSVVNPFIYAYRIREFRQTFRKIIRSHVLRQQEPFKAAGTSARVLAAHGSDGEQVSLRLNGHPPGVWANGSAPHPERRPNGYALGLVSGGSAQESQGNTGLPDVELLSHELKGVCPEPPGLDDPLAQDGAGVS
Estrogen receptor beta, sequence (Q92731 whole entry): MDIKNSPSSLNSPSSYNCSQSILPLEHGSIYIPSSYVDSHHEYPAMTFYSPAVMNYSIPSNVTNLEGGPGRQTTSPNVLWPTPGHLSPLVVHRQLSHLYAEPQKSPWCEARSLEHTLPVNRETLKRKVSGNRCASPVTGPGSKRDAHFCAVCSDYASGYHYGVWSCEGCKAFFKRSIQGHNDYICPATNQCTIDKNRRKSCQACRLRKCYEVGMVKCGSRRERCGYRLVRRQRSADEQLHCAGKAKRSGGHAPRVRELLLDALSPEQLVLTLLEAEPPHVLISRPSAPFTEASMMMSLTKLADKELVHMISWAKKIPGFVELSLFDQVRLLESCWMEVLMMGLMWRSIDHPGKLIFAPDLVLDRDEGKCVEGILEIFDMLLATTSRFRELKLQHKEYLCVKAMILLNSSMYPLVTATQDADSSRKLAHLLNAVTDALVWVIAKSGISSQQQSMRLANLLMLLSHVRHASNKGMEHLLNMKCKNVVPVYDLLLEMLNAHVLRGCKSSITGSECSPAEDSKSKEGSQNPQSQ
Nitric oxide synthase 1, sequence (P29476 whole entry): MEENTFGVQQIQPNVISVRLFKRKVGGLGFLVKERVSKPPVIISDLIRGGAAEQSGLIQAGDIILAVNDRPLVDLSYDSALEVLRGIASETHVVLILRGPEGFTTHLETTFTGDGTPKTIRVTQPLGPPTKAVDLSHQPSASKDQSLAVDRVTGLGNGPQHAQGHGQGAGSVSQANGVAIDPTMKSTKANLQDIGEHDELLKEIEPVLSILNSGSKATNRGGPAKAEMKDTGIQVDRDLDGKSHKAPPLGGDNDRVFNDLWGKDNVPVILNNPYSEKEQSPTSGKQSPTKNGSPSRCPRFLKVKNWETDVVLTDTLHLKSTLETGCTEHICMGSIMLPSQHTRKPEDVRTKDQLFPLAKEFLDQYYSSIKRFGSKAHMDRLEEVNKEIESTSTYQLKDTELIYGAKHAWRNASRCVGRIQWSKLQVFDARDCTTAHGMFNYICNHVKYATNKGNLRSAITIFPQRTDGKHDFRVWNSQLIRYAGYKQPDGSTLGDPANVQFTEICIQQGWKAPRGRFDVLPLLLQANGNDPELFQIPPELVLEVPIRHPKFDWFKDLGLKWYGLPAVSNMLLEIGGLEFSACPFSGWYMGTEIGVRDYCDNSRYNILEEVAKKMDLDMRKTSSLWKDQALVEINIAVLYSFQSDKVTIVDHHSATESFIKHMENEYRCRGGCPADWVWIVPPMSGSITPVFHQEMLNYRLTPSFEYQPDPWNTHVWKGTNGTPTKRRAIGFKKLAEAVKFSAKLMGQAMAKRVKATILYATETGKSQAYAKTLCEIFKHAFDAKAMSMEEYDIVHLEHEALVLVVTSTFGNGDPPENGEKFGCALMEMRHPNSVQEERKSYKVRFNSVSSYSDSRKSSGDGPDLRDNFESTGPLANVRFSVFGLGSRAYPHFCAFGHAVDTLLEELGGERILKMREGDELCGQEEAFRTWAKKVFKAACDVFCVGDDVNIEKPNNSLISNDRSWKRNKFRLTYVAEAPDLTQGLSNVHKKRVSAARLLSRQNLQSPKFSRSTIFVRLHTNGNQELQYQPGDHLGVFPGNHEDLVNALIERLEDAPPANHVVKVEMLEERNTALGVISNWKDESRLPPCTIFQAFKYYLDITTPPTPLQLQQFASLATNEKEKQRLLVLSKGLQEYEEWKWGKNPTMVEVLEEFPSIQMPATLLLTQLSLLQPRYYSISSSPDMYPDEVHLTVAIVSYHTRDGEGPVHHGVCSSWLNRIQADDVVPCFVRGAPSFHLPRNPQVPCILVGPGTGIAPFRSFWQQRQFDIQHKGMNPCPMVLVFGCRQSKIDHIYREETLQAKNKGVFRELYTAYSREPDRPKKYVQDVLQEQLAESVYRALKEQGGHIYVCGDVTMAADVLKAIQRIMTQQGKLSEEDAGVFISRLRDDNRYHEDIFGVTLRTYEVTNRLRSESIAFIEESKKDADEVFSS
Tyrosine-protein kinase Lck, sequence (P06239 whole entry): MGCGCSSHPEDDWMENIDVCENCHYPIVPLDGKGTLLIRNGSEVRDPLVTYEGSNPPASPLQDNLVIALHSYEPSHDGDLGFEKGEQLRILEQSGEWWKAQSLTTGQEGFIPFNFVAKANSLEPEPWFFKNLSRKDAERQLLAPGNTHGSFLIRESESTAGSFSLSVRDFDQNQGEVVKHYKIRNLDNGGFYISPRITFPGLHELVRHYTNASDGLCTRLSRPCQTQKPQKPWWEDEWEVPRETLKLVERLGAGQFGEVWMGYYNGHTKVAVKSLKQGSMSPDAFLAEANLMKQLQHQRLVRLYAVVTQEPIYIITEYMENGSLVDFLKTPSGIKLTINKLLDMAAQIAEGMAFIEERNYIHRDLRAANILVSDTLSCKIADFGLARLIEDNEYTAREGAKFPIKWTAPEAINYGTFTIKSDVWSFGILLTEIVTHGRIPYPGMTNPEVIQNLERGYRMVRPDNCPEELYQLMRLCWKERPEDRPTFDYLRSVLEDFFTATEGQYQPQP

O=C1CN=C(c2ccccc2)c2cc([N+](=O)[O-])ccc2N1 [NITRAZEPAM]
Not Active: IC50 [1] | IC50 [2] | IC50 (Adenosine receptor A2a) | IC50 [3] | Ki [3] | IC50 [4] | Ki [4] | IC50 (Caspase-1) | IC50 [5] | IC50 (Nitric oxide synthase 1) | IC50 (Estrogen receptor beta) | IC50 [6] | Ki [6] | IC50 [7] | Ki [7] | IC50 [8] | IC50 [9] | IC50 [10]

Oc1cccc2cccnc12 [OXYQUINOLINE]
Not Active: IC50 [1] | IC50 [2] | IC50 (Adenosine receptor A2a) | IC50 [3] | Ki [3] | IC50 [4] | Ki [4] | IC50 (Caspase-1) | IC50 [5] | IC50 (Nitric oxide synthase 1) | IC50 (Estrogen receptor beta) | IC50 [6] | Ki [6] | IC50 [7] | Ki [7] | IC50 [8] | IC50 [9] | IC50 [10]

CN(C)[C@@H]1C(O)=C(C(N)=O)C(=O)[C@@]2(O)C(O)=C3C(=O)c4c(O)cccc4[C@@](C)(O)[C@H]3[C@H](O)[C@@H]12 [OXYTETRACYCLINE]
Not Active: IC50 [1] | IC50 [2] | IC50 (Adenosine receptor A2a) | IC50 [3] | Ki [3] | IC50 [4] | Ki [4] | IC50 (Caspase-1) | IC50 [5] | IC50 (Nitric oxide synthase 1) | IC50 (Estrogen receptor beta) | IC50 [6] | Ki [6] | IC50 [7] | Ki [7] | IC50 [8] | IC50 [9] | IC50 [10]

CC(C)(S)[C@@H](N)C(=O)O [PENICILLAMINE]
Not Active: IC50 [1] | IC50 [2] | IC50 (Adenosine receptor A2a) | IC50 [3] | Ki [3] | IC50 [4] | Ki [4] | IC50 (Caspase-1) | IC50 [5] | IC50 (Nitric oxide synthase 1) | IC50 (Estrogen receptor beta) | IC50 [6] | Ki [6] | IC50 [7] | Ki [7] | IC50 [8] | IC50 [9] | IC50 [10]

CC(=O)CCCCn1c(=O)c2c(ncn2C)n(C)c1=O [PENTOXIFYLLINE]
Not Active: IC50 [1] | IC50 [2] | IC50 (Adenosine receptor A2a) | IC50 [3] | Ki [3] | IC50 [4] | Ki [4] | IC50 (Caspase-1) | IC50 [5] | IC50 (Nitric oxide synthase 1) | IC50 (Estrogen receptor beta) | IC50 [6] | Ki [6] | IC50 [7] | Ki [7] | IC50 [8] | IC50 [9] | IC50 [10]

C=C(C)[C@@H]1[C@H]2OC(=O)[C@@H]1[C@]1(O)C[C@H]3O[C@]34C(=O)O[C@H]2[C@]14C [PICROTOXININ]
Not Active: IC50 [1] | IC50 [2] | IC50 (Adenosine receptor A2a) | IC50 [3] | Ki [3] | IC50 [4] | Ki [4] | IC50 (Caspase-1) | IC50 [5] | IC50 (Nitric oxide synthase 1) | IC50 (Estrogen receptor beta) | IC50 [6] | Ki [6] | IC50 [7] | Ki [7] | IC50 [8] | IC50 [9] | IC50 [10]

CCC1(c2ccccc2)C(=O)NCNC1=O [PRIMIDONE]
Not Active: IC50 [1] | IC50 [2] | IC50 (Adenosine receptor A2a) | IC50 [3] | Ki [3] | IC50 [4] | Ki [4] | IC50 (Caspase-1) | IC50 [5] | IC50 (Nitric oxide synthase 1) | IC50 (Estrogen receptor beta) | IC50 [6] | Ki [6] | IC50 [7] | Ki [7] | IC50 [8] | IC50 [9] | IC50 [10]

CARBOPLATIN
Not Active: IC50 [1] | Ki [1] | IC50 [2] | Ki [2] | IC50 (Adenosine receptor A2a) | Ki (Adenosine receptor A2a) | IC50 [3] | Ki [3] | IC50 [4] | Ki [4] | IC50 (Caspase-1) | Ki (Caspase-1) | IC50 [5] | Ki [5] | IC50 (Nitric oxide synthase 1) | Ki (Nitric oxide synthase 1) | IC50 (Estrogen receptor beta) | Ki (Estrogen receptor beta) | IC50 [6] | Ki [6] | IC50 [7] | Ki [7] | IC50 [8] | Ki [8] | IC50 [9] | Ki [9] | IC50 [10] | Ki [10]
